Results on one molecule are retold here after publication PMC7179450, “Primary Human Hepatocytes, But not HepG2 or Balb/c 3T3 Cells, Efficiently Metabolize Salinomycin and Are Resistant to Its Cytotoxicity” (Molecules, 2020).

Where two headings read alike, the source gives them in different places.

Common to all, as to format: cell-based
The test system of test [1] is primary human hepatocytes (PHH). The test is described as follows: NRU assay (neutral red uptake, lysosomal activity) in primary human hepatocytes. Conditions: for EC50: Homo sapiens, Hepatocyte, mean ± SEM, n = 3, read-out: EC50 (effective concentration). The protocol:
(§1) Cryopreserved PHH were purchased from the Primacyt GmbH (Schwerin, Germany). Two different lots were chosen based on CYP activity. The donor was a person. The post-thaw viability was 94.6% for lot HH160531 (used in two repetitions) and 85.0% for lot HH130805. The initial cell viability was determined with the trypan blue exclusion test. The cells were thawed and purified using the Plating and Thawing Kit (Primacyt GmbH). Purified hepatocytes were resuspended in Hepatocyte Plating Medium (Primacyt GmbH) and seeded on collagen-coated 96-well plates at a density of 9 × 10^5 cell/mL and incubated at 37 °C with 5% CO2. After 6 h of incubation, the medium was removed and the cells were washed with PBS. Then Human Hepatocyte Maintenance Medium (HHMM) (Primacyt GmbH) with the studied drugs was added to hepatocytes (100 µL/well). The culture conditions were kept according to the manufacturer’s protocol.
The concentration ranges of the drugs were chosen according to their solubility and their plasma level. Each drug was dissolved in DMSO. The final concentration of DMSO was 0.1% or 0.2% in the medium for both samples and corresponding controls. […] All drug solutions in medium were freshly prepared and protected from light. SAL was tested in seven concentrations from 0.39 to 25 µg/mL. Tiamulin was added in two concentrations (1 and 10 µg/mL) or just one concentration (1 µg/mL) to cell lines or human hepatocytes, respectively. Prednisolone was tested in one concentration—1 µg/mL independent of the type of cells. […] The cytotoxicity was assessed after 24 and 48 h of exposure of cell lines or after 12 and 24 h exposure of PHH. […]
The assay, based on staining of living cells by neutral red (NR), was performed according to the protocol described by Borenfreund and Puerner. […] After 10 min of shaking, the absorbance of the dissolved NR was measured at 540 nm using a blank as a reference. Cytotoxicity was expressed as a percentage of the negative control (0.1% or 0.2% DMSO).

The test system is the same in test [2]. The test is described as follows: LDH leakage assay in primary human hepatocytes. Conditions: Hepatocyte, mean ± SEM, n = 3, read-out: EC50 (effective concentration). The protocol: as §1, with “The culture conditions were kept according to the manufacturer’s protocol.” left out
(§2) The concentration ranges of the drugs were chosen according to their solubility and their plasma level. […] The cytotoxicity was assessed after 24 and 48 h of exposure of cell lines or after 12 and 24 h exposure of PHH. […]
The integrity of the plasma membrane was assessed through the test of lactate dehydrogenase (LDH) release, which was monitored using a commercially available Cytotoxicity Detection Kit (LDH) (Roche Diagnostics, Basel, Switzerland). […] The absorbance was measured at 492 nm in a microplate reader using a blank as a reference.
For orientation: LDH leaks from cells whose membrane has failed.

For another test, the system named is Balb/c 3T3 cells. The test can be described thus: MTT assay, cytotoxicity in Balb/c 3T3. The conditions noted are these: Mus musculus, BALB/c3T3, Balb/c 3T3, MTT, mean ± SEM, n = 3, read-out: EC50 (effective concentration). The protocol: The HepG2 cell line was purchased from the American Type Culture Collection (ATCC® HB-8065™). The cells were cultured in Minimum Essential Medium Eagle (MEME) (Sigma–Aldrich Co. (St. Louis, MO, USA)). Normal murine embryonic fibroblasts, Balb/c 3T3 clone A31 cell line (gift from Department of Swine Diseases of the National Veterinary Research Institute in Pulawy) was cultured in Dulbecco’s Modified Eagle’s Medium (DMEM) (Invitrogen Corporations (Paisley, UK)). The media were supplemented with 10% BCS (Balb/c 3T3), 10% FBS (HepG2), 1% L-glutamine, and 1% antibiotic solution. The cells were maintained in 75 cm^2 cell culture flasks in humidified incubator at 37 °C, in an atmosphere of 5% CO2. […] The initial cell viability was determined with the trypan blue exclusion test. […]
as §2
The metabolic activity of living cells was assessed by measuring the activity of dehydrogenases. […] The plate was shaken for 15 min at room temperature and transferred to a microplate reader to measure the absorbance at 570 nm, using a blank as a reference. Cytotoxicity was expressed as a percentage of the negative control (0.1% or 0.2% DMSO).
A general note: Tetrazolium assays rely on reduction of a dye to a coloured formazan, in cell work by metabolically active cells.

Turning to `CC[C@@H](C(=O)[C@@H](C)[C@@H](O)[C@H](C)[C@@H]1O[C@@H]([C@@H](CC)C(=O)O)CC[C@@H]1C)[C@H]1O[C@]2(C=C[C@@H](O)[C@]3(CC[C@@](C)([C@H]4CC[C@](O)(CC)[C@H](C)O4)O3)O2)[C@H](C)C[C@@H]1C` [SAL, salinomycin], the EC50 amounted to 20.4 ± 1.9 µg/mL in test [1] (12 h exposure); 19.8 ± 1.6 µg/mL in test [1] (24 h exposure); 12.9 ± 3.2 µg/mL in test [2] (12 h exposure); 11.3 ± 0.7 µg/mL in test [2] (24 h exposure); 10.4 ± 1.4 µg/mL in the test with Balb/c 3T3 cells (24 h exposure); 4.3 ± 0.9 µg/mL in the test with Balb/c 3T3 cells (48 h exposure). Besides, the “concentration at which SAL first affected lysosomal activity” value in test [1] (after 24 h (Figure S1)) was 1.56 µg/mL.
